Data as given in the NIST ThermoML archive (doi:10.1016/j.jct.2009.10.002).

Assays:
[1] = mn = molality of the nth substance listed, in mol/kg; conditions: 298.15 K, 101 kPa, Liquid, Vibrating tube method
[2] = 298.15 K; 101.33 kPa; Liquid; Vibrating tube method

O=C(O)c1ccccc1 [benzoic acid] + CCCCCCCCO
[1]
Conditions	mass density [kg/m3]
m1 = 0.002452	822.18
m1 = 0.005198	822.27
m1 = 0.01254	822.53
m1 = 0.01324	822.55
m1 = 0.03589	823.34
m1 = 0.06692	824.43
m1 = 0.198	828.84
m1 = 0.3209	832.91
m1 = 0.4227	836.12
m1 = 0.5096	838.89

Oc1ccccc1 [phenol] + CCCCCCCCO
[1]
Conditions	mass density [kg/m3]
m1 = 0.01293	822.32
m1 = 0.0235	822.59
m1 = 0.03299	822.87
m1 = 0.04712	823.32
m1 = 0.06563	823.78
m1 = 0.1179	825.01
m1 = 0.2355	827.82
m1 = 0.2692	828.62
m1 = 0.3564	831.14
m1 = 0.4787	834.18

NC(=O)c1ccccc1 [benzamide] + CCCCCCCCO
[1]
Conditions	mass density [kg/m3]
m1 = 0.004751	822.25
m1 = 0.009145	822.4
m1 = 0.01194	822.49
m1 = 0.01802	822.68
m1 = 0.02473	822.9
m1 = 0.03952	823.38
m1 = 0.07569	824.52
m1 = 0.108	825.55
m1 = 0.1331	826.37
m1 = 0.179	827.87

CC(=O)Nc1ccc(O)cc1 [N-acetyl-p-aminophenol] + CCCCCCCCO
[1]
Conditions	mass density [kg/m3]
m1 = 0.006684	822.49
m1 = 0.009351	822.61
m1 = 0.01261	822.76
m1 = 0.0141	822.83
m1 = 0.01601	822.91
m1 = 0.01873	823.05
m1 = 0.02173	823.19
m1 = 0.02486	823.33
m1 = 0.03075	823.59
m1 = 0.03578	823.8
m1 = 0.04077	824.01
m1 = 0.04581	824.23
m1 = 0.05103	824.46
m1 = 0.05889	824.81
m1 = 0.06631	825.1
m1 = 0.07665	825.5
m1 = 0.08633	825.93
m1 = 0.1379	828.16

CC(=O)Nc1cccc(O)c1 [3-acetamidophenol] + CCCCCCCCO
[1]
Conditions	mass density [kg/m3]
m1 = 0.002796	822.21
m1 = 0.006909	822.37
m1 = 0.008394	822.43
m1 = 0.01356	822.62
m1 = 0.02056	822.89
m1 = 0.04126	823.67
m1 = 0.08892	825.48
m1 = 0.1451	827.61
m1 = 0.1875	829.24
m1 = 0.2708	832.45

CC(=O)Nc1ccc(C(=O)O)cc1 [4-acetamidobenzoic acid] + CCCCCCCCO
[1]
Conditions	mass density [kg/m3]
m1 = 0.000708	822.14
m1 = 0.00077	822.15
m1 = 0.000914	822.16
m1 = 0.001192	822.17
m1 = 0.001367	822.18
m1 = 0.002266	822.23
m1 = 0.002865	822.26
m1 = 0.002919	822.26
m1 = 0.003657	822.3
m1 = 0.005744	822.42
m1 = 0.01212	822.76
m1 = 0.01816	823.12
m1 = 0.02407	823.47
m1 = 0.0284	823.73
m1 = 0.03621	824.17

NC(=O)c1ccc(O)cc1 [4-hydroxybenzamide] + CCCCCCCCO
[1]
Conditions	mass density [kg/m3]
m1 = 0.002127	822.18
m1 = 0.005332	822.31
m1 = 0.005725	822.34
m1 = 0.007571	822.43
m1 = 0.01115	822.59
m1 = 0.01722	822.85
m1 = 0.02131	822.99
m1 = 0.02267	823.06
m1 = 0.02734	823.25
m1 = 0.02874	823.32
m1 = 0.038	823.71
m1 = 0.05733	824.52
m1 = 0.0819	825.53
m1 = 0.09825	826.23
m1 = 0.1209	827.18
m1 = 0.1408	828.01
m1 = 0.1856	829.93

NC(=O)c1cccc(O)c1 [3-hydroxy-benzamide] + CCCCCCCCO
[1]
Conditions	mass density [kg/m3]
m1 = 0.001492	822.16
m1 = 0.002531	822.2
m1 = 0.003737	822.25
m1 = 0.006435	822.38
m1 = 0.007522	822.43
m1 = 0.01163	822.62
m1 = 0.02156	823.03
m1 = 0.03239	823.51
m1 = 0.04091	823.88
m1 = 0.05285	824.43
m1 = 0.07208	825.26
m1 = 0.08749	825.95

CC(=O)Nc1ccccc1 [N-phenylethanamide] + CCCCCCCCO
[1]
Conditions	mass density [kg/m3]
m1 = 0.002139	822.18
m1 = 0.00565	822.29
m1 = 0.01113	822.46
m1 = 0.01413	822.55
m1 = 0.02434	822.84
m1 = 0.02629	822.9
m1 = 0.05259	823.67
m1 = 0.08132	824.49
m1 = 0.1056	825.18
m1 = 0.1482	826.35
m1 = 0.1847	827.37
m1 = 0.2858	830.1
m1 = 0.3663	832.25

CC(=O)Nc1cccc(C(=O)O)c1 [3-(acetylamino)benzoic acid] + CCCCCCCCO
[1]
Conditions	mass density [kg/m3]
m1 = 0.000244	822.13
m1 = 0.000488	822.14
m1 = 0.000973	822.17
m1 = 0.001081	822.17
m1 = 0.001283	822.18
m1 = 0.001361	822.19
m1 = 0.001375	822.19
m1 = 0.001452	822.19
m1 = 0.001582	822.2
m1 = 0.002358	822.23
m1 = 0.003857	822.28
m1 = 0.006025	822.36
m1 = 0.007586	822.43
m1 = 0.009397	822.51
m1 = 0.0109	822.57
m1 = 0.01161	822.6
m1 = 0.01355	822.68
m1 = 0.01453	822.72

CC(=O)Nc1ccccc1O [N-(2-hydroxyphenyl)ethanamide] + CCCCCCCCO
[1]
Conditions	mass density [kg/m3]
m1 = 0.001728	822.19
m1 = 0.002758	822.23
m1 = 0.003165	822.24
m1 = 0.003211	822.24
m1 = 0.004195	822.28
m1 = 0.005164	822.31
m1 = 0.006563	822.36
m1 = 0.01154	822.56
m1 = 0.0164	822.75
m1 = 0.01909	822.86
m1 = 0.02399	823.06
m1 = 0.03356	823.46

NC(=O)c1ccccc1O [2-hydroxybenzamide] + CCCCCCCCO
[1]
Conditions	mass density [kg/m3]
m1 = 0.002458	822.19
m1 = 0.003905	822.23
m1 = 0.0061	822.31
m1 = 0.007816	822.37
m1 = 0.01182	822.51
m1 = 0.02311	822.87
m1 = 0.03084	823.13
m1 = 0.03859	823.39
m1 = 0.05387	823.86
m1 = 0.08947	825.16

CCOc1ccc(NC(C)=O)cc1 [N-(4-ethoxyphenyl)ethanamide] + CCCCCCCCO
[1]
Conditions	mass density [kg/m3]
m1 = 0.00971	822.4
m1 = 0.01263	822.48
m1 = 0.01969	822.67
m1 = 0.0229	822.75
m1 = 0.02432	822.79
m1 = 0.02706	822.86
m1 = 0.03645	823.12
m1 = 0.04962	823.48
m1 = 0.06288	823.85
m1 = 0.08214	824.37
m1 = 0.105	824.98
m1 = 0.1351	825.83
m1 = 0.1591	826.63

CC(=O)Nc1ccccc1C(=O)O [2-acetamidobenzoic acid] + CCCCCCCCO
[1]
Conditions	mass density [kg/m3]
m1 = 0.004871	822.31
m1 = 0.008993	822.47
m1 = 0.01189	822.58
m1 = 0.01818	822.82
m1 = 0.02358	823.02
m1 = 0.03392	823.42
m1 = 0.05837	824.35
m1 = 0.0873	825.4
m1 = 0.1273	826.83
m1 = 0.1682	828.43

CCCCCCCCO [octan-1-ol]
Conditions	mass density [kg/m3]
[2]	822.11
